In ChEMBL document CHEMBL4831501, “Discovery of a potent and selective inhibitor of histone lysine demethylase KDM4D” (Eur J Med Chem, 2021):

Assays:
[1] = target: T1, Lysine-specific demethylase 4D (Homo sapiens) (UniProt Q6B0I6); test: Inhibition of human KDM4D expressed in Escherichia coli BL21 (DE3) at 1 uM using biotinylated H3-derived peptide and 2-OG as substrate preincubated for 15 mins followed by substrate addition and measured after 1 hr by AlphaLISA assay; conditions: time 75.0 min
T1 sequence (whole entry): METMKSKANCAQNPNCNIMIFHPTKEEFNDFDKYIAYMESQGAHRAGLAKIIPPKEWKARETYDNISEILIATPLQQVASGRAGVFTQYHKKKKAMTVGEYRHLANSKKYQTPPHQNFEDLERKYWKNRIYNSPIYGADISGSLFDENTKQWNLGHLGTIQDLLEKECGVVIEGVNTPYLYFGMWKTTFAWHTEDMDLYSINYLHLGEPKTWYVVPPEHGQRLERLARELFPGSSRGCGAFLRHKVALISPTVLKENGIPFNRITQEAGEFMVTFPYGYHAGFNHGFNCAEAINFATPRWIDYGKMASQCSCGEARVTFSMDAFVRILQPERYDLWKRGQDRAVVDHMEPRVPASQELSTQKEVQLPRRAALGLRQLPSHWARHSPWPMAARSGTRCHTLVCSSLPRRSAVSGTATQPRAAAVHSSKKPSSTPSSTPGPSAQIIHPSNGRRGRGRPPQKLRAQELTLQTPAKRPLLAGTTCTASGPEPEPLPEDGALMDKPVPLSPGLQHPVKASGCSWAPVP

[2] = target: T2, Lysine-specific demethylase 4D (Homo sapiens, UniProt Q6B0I6); test: Inhibition of human KDM4D expressed in Escherichia coli BL21 (DE3) using biotinylated H3-derived peptide and 2-OG as substrate preincubated for 15 mins followed by substrate addition and measured after 1 hr by AlphaLISA assay
T2 sequence (Q6B0I6 whole entry): T1 sequence (whole entry)

SMILES	inhibition [1]	IC50 [2]
CC(C)(C)OC(=O)N[C@@H]1CCN(C(c2ccncc2)c2cc3c(cc2O)CCC3)C1 (some centres undefined)	-6.01%	–
CC(C)(C)OC(=O)N[C@@H]1CCN(C(c2cccc(C#N)c2)c2cc3c(cc2O)OCO3)C1 (some centres undefined)	96.5%	0.482 µM
CC(C)(C)OC(=O)N[C@@H]1CCN(C(c2cccc(-c3ccccn3)c2)c2cc3c(cc2O)OCO3)C1 (some centres undefined)	91.4%	0.285 µM
CC(C)(C)OC(=O)N[C@@H]1CCN(C(c2ccncc2)c2cc3c(cc2O)OCO3)C1 (some centres undefined)	97.2%	0.135 µM
CC(C)(C)OC(=O)N[C@@H]1CCN(C(c2ccncc2)c2cc3c(cc2O)OC(C)(C)O3)C1 (some centres undefined)	76%	0.609 µM
CC(C)(C)OC(=O)N[C@@H]1CCN(C(c2ccncc2)c2cc3c(cc2O)OC(F)(F)O3)C1 (some centres undefined)	0.88%	–
COc1ccc(O)c(C(c2ccncc2)N2CC[C@@H](NC(=O)OC(C)(C)C)C2)c1 (some centres undefined)	-3.27%	–
COc1cc(O)c(C(c2ccncc2)N2CC[C@@H](NC(=O)OC(C)(C)C)C2)cc1F (some centres undefined)	12.9%	–
CN(C)[C@@H]1CCN(C(c2ccncc2)c2cc3c(cc2O)OCO3)C1 (some centres undefined)	95%	0.2 µM
CC(C)(C)NC(=O)N[C@@H]1CCN(C(c2ccncc2)c2cc3c(cc2O)OCO3)C1 (some centres undefined)	97.2%	0.188 µM
CC(C)(C)OC(=O)N[C@@H]1CCN(C(c2ccc(-n3cccc3)cc2)c2cc3c(cc2O)OCO3)C1 (some centres undefined)	95.6%	0.444 µM
CC(C)(C)OC(=O)N[C@@H]1CCN(C(c2cc3c(cc2O)OCO3)c2ccc(F)cc2Cl)C1 (some centres undefined)	98.5%	0.117 µM
O=C(N[C@H]1CCN(C(c2ccncc2)c2cc3c(cc2O)OCO3)C1)C1CC1 (some centres undefined)	96.6%	0.892 µM
CC(C)(C)OC(=O)N[C@@H]1CCN(C(c2ccc(C#N)cc2)c2cc3c(cc2O)OCO3)C1 (some centres undefined)	99.4%	0.141 µM
CC(C)(C)OC(=O)N[C@@H]1CCN(Cc2cc3c(cc2O)OCO3)C1	-4.8%	–
CC(C)(C)OC(=O)N[C@@H]1CCN(C(c2cc3c(cc2O)OCO3)c2ccc(Cl)cc2F)C1 (some centres undefined)	99.3%	0.111 µM
CC(C)(C)OC(=O)N[C@@H]1CCN(C(c2cnccn2)c2cc3c(cc2O)OCO3)C1 (some centres undefined)	99%	0.552 µM
CC(C)(C)OC(=O)N[C@@H]1CCN(C(c2cc3c(cc2O)OCO3)C2CCCCC2)C1 (some centres undefined)	-7.31%	–
COC(=O)c1cccc(C(c2cc3c(cc2O)OCO3)N2CC[C@@H](NC(=O)OC(C)(C)C)C2)c1 (some centres undefined)	98.3%	0.499 µM
CCOc1ccccc1C(=O)N[C@@H]1CCN(C(c2ccncc2)c2cc3c(cc2O)OCO3)C1 (some centres undefined)	94.4%	0.342 µM

SMILES	inhibition [1]	IC50 [2]
O=C(N[C@@H]1CCN(C(c2ccncc2)c2cc3c(cc2O)OCO3)C1)c1ccccc1F (some centres undefined)	96.6%	0.437 µM
CC(C)(C)OC(=O)N[C@@H]1CCN(C(c2ccc(-c3ccncc3)cn2)c2cc3c(cc2O)OCO3)C1 (some centres undefined)	96.6%	0.126 µM
CC(C)(C)OC(=O)N[C@@H]1CCN(C(c2ccc(-c3ccccn3)cc2)c2cc3c(cc2O)OCO3)C1 (some centres undefined)	99.8%	0.145 µM
CN(C(=O)OC(C)(C)C)[C@@H]1CCN(C(c2ccncc2)c2cc3c(cc2O)OCO3)C1 (some centres undefined)	87.6%	0.642 µM
O=C(O[C@@H]1CCN(C(c2ccncc2)c2cc3c(cc2O)OCO3)C1)C1CC1 (some centres undefined)	98.2%	0.586 µM
O=C(N[C@@H]1CCN(C(c2ccncc2)c2cc3c(cc2O)OCO3)C1)C1CC1 (some centres undefined)	99.8%	0.155 µM
COc1ccc(C(c2ccncc2)N2CC[C@@H](NC(=O)OC(C)(C)C)C2)c(O)c1 (some centres undefined)	44.3%	–
CC(C)(C)OC(=O)N[C@@H]1CCN(C(c2ccc(-n3cncn3)cc2)c2cc3c(cc2O)OCO3)C1 (some centres undefined)	99.7%	0.056 µM
COc1ccc(OC)c(C(c2ccncc2)N2CC[C@@H](NC(=O)OC(C)(C)C)C2)c1O (some centres undefined)	97.5%	0.212 µM
CC(=O)N[C@@H]1CCN(C(c2ccncc2)c2cc3c(cc2O)OCO3)C1 (some centres undefined)	77.5%	0.519 µM
CC(C)(C)OC(=O)N[C@@H]1CCN(C(c2cccc(-n3ccnc3)c2)c2cc3c(cc2O)OCO3)C1 (some centres undefined)	99.7%	0.109 µM
CC(C)(C)OC(=O)N[C@@H]1CCN(C(c2ccc(-c3cccnc3)cc2)c2cc3c(cc2O)OCO3)C1 (some centres undefined)	99.2%	0.22 µM
Cc1nccn1-c1ccc(C(c2cc3c(cc2O)OCO3)N2CC[C@@H](NC(=O)OC(C)(C)C)C2)cc1 (some centres undefined)	99.8%	0.087 µM
CC(C)(C)OC(=O)N[C@@H]1CCN(C(c2ccc(C#N)c(F)c2)c2cc3c(cc2O)OCO3)C1 (some centres undefined)	98.7%	0.382 µM
CC(C)(C)OC(=O)N[C@@H]1CCN(C(c2ccc(C#N)cn2)c2cc3c(cc2O)OCO3)C1 (some centres undefined)	100%	0.045 µM
CC(C)(C)OC(=O)N[C@@H]1CCN(C(c2cc3c(cc2O)OCO3)c2ccc(F)cc2F)C1 (some centres undefined)	97.3%	0.173 µM
N[C@@H]1CCN(C(c2ccncc2)c2cc3c(cc2O)OCO3)C1 (some centres undefined)	33.6%	1.75 µM
CC(C)(C)OC(=O)N[C@@H]1CCN(C(c2cccc(-c3cccnc3)c2)c2cc3c(cc2O)OCO3)C1 (some centres undefined)	96.2%	0.184 µM
CC(C)(C)NC(=S)N[C@@H]1CCN(C(c2ccncc2)c2cc3c(cc2O)OCO3)C1 (some centres undefined)	96.4%	0.171 µM
CC(C)(C)OC(=O)N[C@@H]1CCN(C(c2ccncc2)c2ccc(C(C)(C)C)cc2O)C1 (some centres undefined)	-8.59%	–

SMILES	inhibition [1]	IC50 [2]
O=C(NC1CC1)[C@@H]1CCN(C(c2ccncc2)c2cc3c(cc2O)OCO3)C1 (some centres undefined)	98.3%	0.546 µM
CC(C)(C)C(=O)N[C@@H]1CCN(C(c2ccncc2)c2cc3c(cc2O)OCO3)C1 (some centres undefined)	98.7%	0.664 µM
Cn1nccc1C(c1cc2c(cc1O)OCO2)N1CC[C@@H](NC(=O)OC(C)(C)C)C1 (some centres undefined)	94.6%	0.509 µM
O=C(N[C@@H]1CCN(C(c2ccncc2)c2cc3c(cc2O)OCO3)C1)c1ccccc1 (some centres undefined)	99.9%	0.536 µM
O=S(=O)(N[C@@H]1CCN(C(c2ccncc2)c2cc3c(cc2O)OCO3)C1)C1CC1 (some centres undefined)	99.3%	0.577 µM
CC(C)(C)OC(=O)N[C@@H]1CCN(C(c2cc3c(cc2O)OCO3)c2ccc(C#N)cc2F)C1 (some centres undefined)	99.4%	0.33 µM
O=C(NC[C@@H]1CCN(C(c2ccncc2)c2cc3c(cc2O)OCO3)C1)C1CC1 (some centres undefined)	93.6%	0.193 µM
CC(C)(C)OC(=O)N[C@@H]1CCN(C(c2ccc(-c3ccncc3)nc2)c2cc3c(cc2O)OCO3)C1 (some centres undefined)	97.1%	0.165 µM
CC(C)(C)OC(=O)N[C@@H]1CCN(C(c2ccncc2)c2cc3c(cc2O)OCCO3)C1 (some centres undefined)	2.78%	–
COc1ccccc1C(=O)N[C@@H]1CCN(C(c2ccncc2)c2cc3c(cc2O)OCO3)C1 (some centres undefined)	99.1%	0.399 µM
CC(C)(C)OC(=O)N[C@@H]1CCN(C(c2cccc(-c3ccncc3)c2)c2cc3c(cc2O)OCO3)C1 (some centres undefined)	95.6%	0.223 µM
CC(C)C(=O)N[C@@H]1CCN(C(c2ccncc2)c2cc3c(cc2O)OCO3)C1 (some centres undefined)	96.5%	0.22 µM
COc1cccc(C(=O)N[C@@H]2CCN(C(c3ccncc3)c3cc4c(cc3O)OCO4)C2)c1 (some centres undefined)	99.4%	0.546 µM
COC(=O)c1ccc(C(c2cc3c(cc2O)OCO3)N2CC[C@@H](NC(=O)OC(C)(C)C)C2)cc1 (some centres undefined)	99.4%	0.445 µM
CC(C)(C)OC(=O)N[C@@H]1CCN(C(c2ccc(F)cc2)c2cc3c(cc2O)OCO3)C1 (some centres undefined)	98.2%	0.192 µM
CC(C)(C)OC(=O)N[C@@H]1CCN(C(c2ccc(-c3ccccc3)cc2)c2cc3c(cc2O)OCO3)C1 (some centres undefined)	10.6%	–
CC(C)(C)OC(=O)N[C@@H]1CCN(C(c2cncnc2)c2cc3c(cc2O)OCO3)C1 (some centres undefined)	64.4%	–
CC(C)(C)OC(=O)N[C@@H]1CCN(C(c2ccncc2)c2ccccc2O)C1 (some centres undefined)	1.9%	–
